“And” between values parts separate entries of the source, which are not always exact repeats. Identical values can stand only once. “Also recorded” adds a separate entry of the source.

Assay [1] concerns the target T1, LNCaP androgen receptor (endogenous mutant AR) (Homo sapiens, UniProt P10275, T878A).
T1 construct: LNCaP cells express an endogenous mutant AR that is found in prostate cancer patients; host or cells: LNCaP
T1 sequence (P10275 1-920 T878A): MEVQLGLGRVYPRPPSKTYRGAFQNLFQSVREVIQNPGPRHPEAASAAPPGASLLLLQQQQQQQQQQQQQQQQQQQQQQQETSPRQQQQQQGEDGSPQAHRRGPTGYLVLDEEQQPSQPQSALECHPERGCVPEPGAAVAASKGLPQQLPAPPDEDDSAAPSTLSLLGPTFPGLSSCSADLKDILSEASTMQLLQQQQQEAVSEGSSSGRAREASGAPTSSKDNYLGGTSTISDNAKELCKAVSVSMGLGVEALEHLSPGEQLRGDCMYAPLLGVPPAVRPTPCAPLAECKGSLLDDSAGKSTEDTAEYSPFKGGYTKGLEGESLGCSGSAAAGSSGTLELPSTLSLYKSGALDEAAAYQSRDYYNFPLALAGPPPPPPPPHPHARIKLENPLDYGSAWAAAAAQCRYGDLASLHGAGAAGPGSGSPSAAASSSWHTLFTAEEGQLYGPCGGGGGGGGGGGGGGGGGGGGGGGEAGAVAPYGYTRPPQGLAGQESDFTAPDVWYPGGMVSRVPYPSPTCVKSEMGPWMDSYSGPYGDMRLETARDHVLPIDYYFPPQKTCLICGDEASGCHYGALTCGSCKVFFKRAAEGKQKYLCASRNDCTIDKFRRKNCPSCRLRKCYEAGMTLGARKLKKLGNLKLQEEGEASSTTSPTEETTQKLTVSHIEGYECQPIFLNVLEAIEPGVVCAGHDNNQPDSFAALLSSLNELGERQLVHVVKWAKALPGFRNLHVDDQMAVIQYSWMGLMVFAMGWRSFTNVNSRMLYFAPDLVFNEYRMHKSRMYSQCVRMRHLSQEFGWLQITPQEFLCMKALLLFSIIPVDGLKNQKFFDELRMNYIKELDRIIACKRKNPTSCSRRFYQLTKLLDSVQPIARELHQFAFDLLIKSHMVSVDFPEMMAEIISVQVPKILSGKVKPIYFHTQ
As to the kind of experiment: Androgen receptor transactivation assay in LNCaP cells (MMTV-luciferase reporter). The class given is cell-based. Particulars: DHT 1 nM, JC9 0 uM to 7.5 uM. The text has this:
Prostate cancer cells, non-prostate tumor cells, and normal cells can be used in this transient transfection assay, which measures transactivation of the androgen receptor (AR) and can be used to detect a reduction of AR activity caused by AR degradation. In the provided non-limiting example, CV-1 (green monkey kidney cells lacking an androgen receptor) and LNCaP cells (prostate cancer cells containing an endogenous mutant AR), were transfected with a plasmid carrying an androgen response element (ARE) and a reporter gene.
Both the CV-1 and LNCaP cells (obtained from ATCC, Manassas, Va.) were maintained in […] medium supplemented with penicillin (25 units/millilter), streptomycin (25 micrograms/milliliter), and 10% heat-inactivated fetal bovine serum (FBS). Cells were plated in 35-millimeter dishes at a concentration of 1-2×10^5cells/well and cultured at 37 degrees Celsius in an incubator under a 5% carbon dioxide atmosphere. […] The cells were lysed, and luciferase activity of the lysate was measured with the Dual-Luciferase Reporter Assay System (Promega, Madison, Wis.). Data were expressed as relative luciferase activity normalized to the internal luciferase positive control. […]
(Reporter assays use an easily measured gene product as a stand-in for the process of interest.)

Another assay has as its system acne vulgaris. As to the kind of experiment: Topical treatment of acne in human volunteers. As to conditions: for Recovery Time: topical cream, per subject. The class given is in vivo. How it is done:
In this example, human subjects were successfully treated for acne by topical administration of a cream containing the compound JC15 or JC9, which were shown in the previous examples to ameliorate the effects of the androgen receptor-activated pathway, specifically by inducing degradation of the androgen receptor. A basic carrier formulation was prepared by mixing two solutions: (1) a water-based solution containing aristoflex avc, Osmocide, Tween 20, and water; and (2) an oil-based solution containing isopropyl myristate, coconut dienthanolamine, ethylparaben, isobutylparaben, methylparaben, and propylparaben. The test compounds (JC15 or JC9) were added to the cream to a final concentration of 1 to 2.5 micromolar, as needed.
Male and female human volunteers ranging in age from 15 years to 52 years were treated by topical application of the test compounds to the acne-affected skin. […] The results are given in Table 1, and a representative result (photo pictures) from one volunteer is depicted in FIG. 7.

The subject of the next assay is sebaceous glands. As to the kind of experiment: Reduction of sebaceous glands in Fuzzy rats by topical cream. The class given is in vivo. As to conditions: once daily; for size of the sebaceous glandular lobe and duct: male Fuzzy rats, 8 weeks. The text has this: In this example, the test compounds JC15 and JC9, which were shown in the previous examples to ameliorate the effects of the androgen receptor-activated pathway, specifically by inducing degradation of the androgen receptor, and to be effective in treating acne in human subjects, were used to reduce sebaceous glandular lobe size in an animal model. Effective reduction of sebaceous glands by topical treatment may be useful in treating skin conditions such as acne. Fuzzy rats were used in this animal model as described in Ye et al. (1997) Skin Pharmacol., 10:10288-10297, which is incorporated by reference in its entirety herein.
Topical creams were prepared as described in EXAMPLE 6. The test creams contained JC9 ([…]) or JC15 (1 micromolar); a control cream with only vehicle added was also prepared. The test or control creams were applied using a cotton swab to the dorsal skin of the animal, once daily, over a period of 8 weeks. Animals were then sacrificed and skin samples collected for microscopic examination. Commercial hair remover was applied to the dorsal surface of the euthanized animals. After 5 minutes, the hair remover and hairs were removed with a tissue. The area was thoroughly cleaned with 75% isopropyl alcohol. A 4-millimeter skin punch was used to remove skin tissue samples, which were incubated for 2 to 3 hours in a ethylenediaminetetraacetate (EDTA, 17 millimolar), sodium phosphate (0.1 molar, pH 7.4) solution at 37 degrees Celsius. The epidermis was carefully separated from the dermis and stored in 10% phosphate-buffered formalin. Prior to microscopic examination, the samples were mounted on glass slides. Areas of well-preserved glandular lobules were selected for microscopic imaging. Edges of the glandular lobes were traced and the areas of the traced lobes obtained with Image J software (National Institutes of Health).

For the compound `COc1ccc(C=CC(=O)C=C(O)C=Cc2ccc(OC)c(OC)c2)cc1OC` [JC9, 5-hydroxy-1,7-bis(3,4-dimethoxyphenyl)-1,4,6-heptatrien-3-one], the “LNCaP androgen receptor transactivation (relative luciferase activity)” value in assay [1] is reported as “dose-dependent inhibition of LNCaP androgen receptor transactivation”. The “Recovery Time” value with acne vulgaris (1 micromolar, four times a day) was 1 week; in the assay on acne vulgaris (1 micromolar, twice a day) it was 2 weeks; in the assay with acne vulgaris (2.5 micromolar, twice a day), 1 week. The “time within which bands of sebaceous glands were reduced” value in the assay with sebaceous glands (JC9 25 micromolar cream, topical) was 4-5 weeks. The “size of the sebaceous glandular lobe and duct” value in the assay on sebaceous glands (JC9 25 micromolar cream) was “reduction in the size of the sebaceous glandular lobe and duct; also recorded: significantly reduced the size of lobe and ducts of sebaceous glands”.

With `CCOC(=O)CCC(C(=O)C=Cc1ccc(O)c(OC)c1)C(=O)C=Cc1ccc(O)c(OC)c1` (stereo not shown) [JC15, 7-(4-hydroxy-3-methoxyphenyl)-4-[3-(4-hydroxy-3-methoxyphenyl)acryloyl]-5-oxo-hept-6-enoic acid ethyl ester], in the assay on acne vulgaris (JC15 1 micromolar in carrier base, acne-affected volunteer, one month topical treatment), the “skin condition of forehead (photographs)” value is recorded as “visible improvement to skin condition”. The “Recovery Time” value was 1 week weeks (2×) and 2 weeks in the assay on acne vulgaris (1 micromolar, as often as needed, listed as ASCJ15); 2 weeks (2×) and 1 week weeks in the assay on acne vulgaris (1 micromolar, twice a day, listed as ASCJ15). Besides, the “size of the sebaceous glandular lobe and duct” value in the assay on sebaceous glands (JC15 1 micromolar cream) is “reduction in the size of the sebaceous glandular lobe and duct; also recorded: approximately equivalent to the decrease caused by castration”.

Values taken from patent publication US20060084704A1, “Methods and compositions for enhancing degradation of nuclear receptor transcription factors and uses thereof” (priority 2004, published 2006).
